Assays:
[1] = molecular target: T1, human recombinant histamine H2 receptor (Homo sapiens, UniProt P25021); experiment: Histamine H2 radioligand binding ([125I]Aminopotentidine); conditions: for inhibition at 1 µM: percent inhibition of specific binding, screened at 1 μM, read-out: Inhibition of ligand binding, Hist. H2
T1 construct: expressed in transfected cells; host or cells: CHO-K1 cells
Outline: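 Test compounds were assessed for their ability to displace radioligand from the human recombinant histamine H2 receptor. Non-specific binding was determined in the presence of 3 μM Tiotidine, and results were expressed as percent inhibition of specific binding, with 1% DMSO serving as the vehicle.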

[2] = molecular target: T2, human recombinant adrenergic α2A receptor (Homo sapiens, UniProt P08913); experiment: Adrenergic α2A radioligand binding ([3H]MK-912); design: Inhibition of ligand binding, Adren. alpha2A: concentration or dose not given beside the values; conditions: percent inhibition of specific binding
T2 construct: expressed in transfected cells; host or cells: insect Sf9 cells
T2 sequence (P08913 1-465): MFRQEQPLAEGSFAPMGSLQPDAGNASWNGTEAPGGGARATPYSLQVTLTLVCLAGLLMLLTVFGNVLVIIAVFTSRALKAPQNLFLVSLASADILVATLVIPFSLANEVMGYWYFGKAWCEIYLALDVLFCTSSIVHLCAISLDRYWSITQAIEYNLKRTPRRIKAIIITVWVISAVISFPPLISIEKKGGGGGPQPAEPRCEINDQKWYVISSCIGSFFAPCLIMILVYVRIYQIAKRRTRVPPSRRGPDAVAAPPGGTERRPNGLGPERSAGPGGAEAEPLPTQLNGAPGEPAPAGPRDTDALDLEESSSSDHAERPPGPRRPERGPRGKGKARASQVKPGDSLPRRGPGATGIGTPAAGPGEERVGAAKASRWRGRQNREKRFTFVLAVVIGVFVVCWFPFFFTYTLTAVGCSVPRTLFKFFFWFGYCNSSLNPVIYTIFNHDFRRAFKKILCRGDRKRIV
Outline: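 Membranes from Sf9 cells expressing the receptor were incubated with 1 nM [3H]MK-912 for 60 minutes at 25° C in 50 mM Tris-HCl pH 7.4, 12.5 mM MgCl2, 2 mM EDTA. 10 μM WB-4101 defined non-specific binding. Values are percent inhibition of specific bound radioactivity after filtration.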

[3] = molecular target: T3, human recombinant serotonin (5-Hydroxytryptamine) 5-HT2C receptor (Homo sapiens, UniProt P28335); experiment: Serotonin 5-HT2C radioligand binding ([3H]Mesulergine); design: Inhibition of ligand binding, Ser. 5-HT2C: concentration or dose not given beside the values; conditions: percent inhibition of specific binding
T3 construct: expressed in transfected cells; host or cells: CHO-K1 cells
T3 sequence (P28335 33-458): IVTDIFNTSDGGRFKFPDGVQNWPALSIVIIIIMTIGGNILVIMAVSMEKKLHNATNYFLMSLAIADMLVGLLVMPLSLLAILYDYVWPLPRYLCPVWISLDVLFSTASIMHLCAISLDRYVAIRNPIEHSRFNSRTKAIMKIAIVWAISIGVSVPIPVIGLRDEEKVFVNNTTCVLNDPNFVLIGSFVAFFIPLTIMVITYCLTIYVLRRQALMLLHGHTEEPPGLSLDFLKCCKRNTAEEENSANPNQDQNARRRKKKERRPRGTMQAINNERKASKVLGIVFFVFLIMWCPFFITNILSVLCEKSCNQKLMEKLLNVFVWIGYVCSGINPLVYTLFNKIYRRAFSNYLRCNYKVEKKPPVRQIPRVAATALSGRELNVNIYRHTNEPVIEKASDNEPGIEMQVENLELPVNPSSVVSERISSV
Protocol: Compounds of the invention were incubated with 1 nM [^3H]Mesulergine for 60 minutes at 25° C. Non-specific binding was estimated in the presence of 1 μM Mianserin. Receptor proteins were filtered and washed, the filters were then counted to determine [^3H]Mesulergine specifically bound. […] Biochemical assay results are presented as the percent inhibition of specific binding in Table 6.

T1 sequence (P25021 whole entry): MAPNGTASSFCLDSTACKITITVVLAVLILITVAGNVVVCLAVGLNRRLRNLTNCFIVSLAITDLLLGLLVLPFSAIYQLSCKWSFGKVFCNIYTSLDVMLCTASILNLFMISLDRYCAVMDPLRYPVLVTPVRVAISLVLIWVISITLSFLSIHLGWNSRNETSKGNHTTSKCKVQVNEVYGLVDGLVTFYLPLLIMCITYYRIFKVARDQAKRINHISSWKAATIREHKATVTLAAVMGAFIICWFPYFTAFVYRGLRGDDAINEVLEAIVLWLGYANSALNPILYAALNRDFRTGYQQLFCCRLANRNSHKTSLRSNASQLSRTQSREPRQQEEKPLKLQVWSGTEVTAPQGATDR

SMILES	inhibition at 1 µM [1] [%]	Inhibition of ligand binding, Adren. alpha2A [2] [%]	Inhibition of ligand binding, Ser. 5-HT2C [3] [%]	inhibition at […] ([1]; […] compound, 0.1 nM [125I]Aminopotentidine, read-out: Histamine Binding H2, percent inhibition of specific binding) [%]
Cc1ccc2c(c1)c1c(n2CCc2cnccn2)CCN(C)C1 [Compound 62]	15	51	88	–
CN1CCc2c(c3cc(Cl)ccc3n2CCN2CCCCC2)C1 [Compound 189]	87	76	85	–
CC(C)N1CCN(C(=O)Cn2c3c(c4cc(Cl)ccc42)CN(C)CC3)CC1 [Compound 248]	7	27	59	–
CN1CCc2c(c3cc(F)ccc3n2CCc2ccc(Cl)cc2)C1 [Compound 249]	88	97	98	–
Cc1ccc2c(c1)c1c(n2CC(=O)N2CCC(C)CC2)CCN(C)C1 [Compound 251]	21	2	23	–
Cc1ccc(CCn2c3c(c4cc(C(=O)O)ccc42)CN(C)CC3)cn1 [Compound 256, 2-Methyl-5-(2-(6-methylpyridin-3-yl)ethyl)-2,3,4,5-tetrahydro-1H-pyrido[4,3-b]indole-8-carboxylic acid]	-6	−7	0	-16
Cc1ccc2c(c1)c1c(n2CC(=O)N2CCCC2)CCN(C)C1 [Compound 257, 2-(1,2,3,4-tetrahydro-2,8-dimethylpyrido[4,3-b]indol-5-yl)-1-(pyrrolidin-1-yl)ethanone]	1	−4	47	–
Cc1ccc(CCn2c3c(c4cc(CO)ccc42)CN(C)CC3)cn1 [Compound 263]	15	34	31	–
CN1CCc2c(c3cc(Cl)cc(F)c3n2CCc2ccc(C(F)(F)F)nc2)C1 [Compound 338, 8-chloro-6-fluoro-5-(2-(6-(trifluoromethyl)pyridin-3-yl)ethyl)-2,3,4,5-tetrahydro-2-methyl-1H-pyrido[4,3-b]indole]	78	99	68	–
CN1CCc2c(c3cc(OC(F)(F)F)ccc3n2CCc2ccc(C(F)(F)F)nc2)C1 [Compound 341, 5-(2-(6-(trifluoromethyl)pyridin-3-yl)ethyl)-2,3,4,5-tetrahydro-2-methyl-8-(trifluoromethoxy)-1H-pyrido[4,3-b]indole]	15	36	16	–
CC(C)c1ccc2c(c1)c1c(n2CCc2ccc(C(F)(F)F)nc2)CCN(C)C1 [Compound 342, 8-Isopropyl-2-methyl-5-[2-(6-trifluoromethyl-pyridin-3-yl)-ethyl]-2,3,4,5-tetrahydro-1H-pyrido[4,3-b]indole]	39	94	73	–
CN1CCc2c(c3cc(Cl)c(F)cc3n2CCc2ccc(C(F)(F)F)nc2)C1 [Compound 343]	29	90	69	–
OC1CCC(N2CCc3c(c4cc(Cl)ccc4n3CCc3ccc(C(F)(F)F)nc3)C2)C1 (stereo not shown) [Compound 351, 3-(8-chloro-5-(2-(6-(trifluoromethyl)pyridin-3-yl)ethyl)-3,4-dihydro-1H-pyrido[4,3-b]indol-2(5H)-yl)cyclopentanol]	-2	8	26	–
Cc1ccc2c(n1)c1c(n2CCc2ccc(C(F)(F)F)nc2)CCN(C)C1 [Compound 353, 9-aza-2,8-dimethyl-5-(2-(6-(trifluoromethyl)pyridin-3-yl)ethyl)-2,3,4,5-tetrahydro-1H-pyrido[4,3-b]indole]	-2	8	−15	–
CCc1ccc2c(c1)c1c(n2CCc2ccc(C(F)(F)F)nc2)CCN(C)C1 [Compound 358, 8-Ethyl-2-methyl-5-[2-(6-trifluoromethyl-pyridin-3-yl)-ethyl]-2,3,4,5-tetrahydro-1H-pyrido[4,3-b]indole]	47	96	78	–
CCc1ccc(CCn2c3c(c4cc(C)ccc42)CN(C)CC3)cn1 [Compound 359, 5-[2-(6-Ethyl-pyridin-3-yl)-ethyl]-2,8-dimethyl-2,3,4,5-tetrahydro-1H-pyrido[4,3-b]indole]	94	77	91	–
Cc1ncc(CCn2c3c(c4cc(Cl)ccc42)CN(C)CC3)cn1 [Compound 361, 8-Chloro-2-methyl-5-[2-(2-methyl-pyrimidin-5-yl)-ethyl]-2,3,4,5-tetrahydro-1H-pyrido[4,3-b]indole]	25	30	58	–
CCc1ccc2c(c1)c1c(n2CCc2cnc(C)nc2)CCN(C)C1 [Compound 362, 8-Ethyl-2-methyl-5-[2-(2-methyl-pyrimidin-5-yl)-ethyl]-2,3,4,5-tetrahydro-1H-pyrido[4,3-b]indole]	19	14	40	–
Cc1cnc(CCn2c3c(c4cc(Cl)ccc42)CN(C)CC3)cn1 [Compound 363, 8-Chloro-2-methyl-5-[2-(5-methyl-pyrazin-2-yl)-ethyl]-2,3,4,5-tetrahydro-1H-pyrido[4,3-b]indole]	31	59	66	–
CCc1ccc2c(c1)c1c(n2CCc2cnc(C)cn2)CCN(C)C1 [Compound 364, 8-Ethyl-2-methyl-5-[2-(5-methyl-pyrazin-2-yl)-ethyl]-2,3,4,5-tetrahydro-1H-pyrido[4,3-b]indole]	13	65	81	–
Cc1cnc(CCn2c3c(c4cc(C(C)C)ccc42)CN(C)CC3)cn1 [Compound 369, 8-Isopropyl-2-methyl-5-[2-(5-methyl-pyrazin-2-yl)-ethyl]-2,3,4,5-tetrahydro-1H-pyrido[4,3-b]indole]	6	25	57	–
Cc1ncc(CCn2c3c(c4cc(C(C)C)ccc42)CN(C)CC3)cn1 [Compound 370, 8-Isopropyl-2-methyl-5-[2-(2-methyl-pyrimidin-5-yl)-ethyl]-2,3,4,5-tetrahydro-1H-pyrido[4,3-b]indole]	18	35	40	–
Cc1cccc2c3c(n(CCc4ccc(C(F)(F)F)nc4)c12)CCN(C)C3 [Compound 380, 5-(2-(6-(trifluoromethyl)pyridin-3-yl)ethyl)-2,3,4,5-tetrahydro-2,6-dimethyl-1H-pyrido[4,3-b]indole]	69	78	70	–
Cc1ccc2c(c1)c1c(n2CCc2cncnc2)CCN(C)C1 [Compound 387, 2,8-Dimethyl-5-(2-pyrimidin-5-yl-ethyl)-2,3,4,5-tetrahydro-1H-pyrido[4,3-b]indole]	11	12	76	–

— US9096591B2, “Tetracyclic compounds” (Medivation Technologies, Inc., priority 2007, dated 2015)
